# What was measured:
# Type in all cases: in vivo
# [1] = test system: Reticulitermes speratus; assay: Test Example 4: treated filter paper in Petri dish, termite mortality after 25 days
# Protocol: Mortality (%)=(Number of dead termite workers/15 termite workers)×100
# Further, by the Colby's formula, the theoretical value (%) of mortality can be calculated. In a case where the actual mortality (%) is higher than the theoretical value (%), it can be said that the composition of the present invention has a synergistic effect for controlling the house insect pest.
# A filter paper having a diameter of 80 mm was placed in a plastic Petri dish, and 1 ml of a pesticide solution having a predetermined concentration, was dropped thereon. After the treatment, the solvent was sufficiently evaporated, and then, 1 ml of distilled water was impregnated to the treated filter paper, whereupon 10 termite workers (Reticulitermes speratus) were released. The plastic Petri dish was placed in a container having wet cotton laid over the bottom, and the container was maintained at 25° C. for 25 days, whereupon the number of dead termites in the Petri dish was examined, and the mortality was calculated in the same manner as in Test Example 1.
# [2] = test system: Coptotermes formosanus; assay: Test Example 13: Japanese red pine poison bait, termite mortality and abnormal ratio with time
# Text: A wood block of Japanese red pine (2 cm×2 cm×0.5 cm) subjected to boiling treatment in hot water, was immersed in a methanol solution of a sample compound, and then, it was dried to obtain a Japanese red pine poison bait chemical containing the sample compound in a predetermined concentration. This poison bait chemical was put into a cylindrical cup made of acrylic resin (i.e. a cup having a hole with a diameter of 10 mm formed in the bottom and having hard plaster (Dental Stone) set at the bottom in the thickness of 10 mm), and 15 termite workers (Coptotermes formosanus) were released thereon. The cup was placed in a container having wet cotton laid over the bottom, and the container was maintained at room temperature of 25° C., whereby the number of dead termites and abnormal termites in the cup was examined as the time passed, and the mortality was calculated.
# [3] = test system: Coptotermes formosanus; assay: Test Example 14: Japanese red pine poison bait, spread from bait-treated to non-treated termites; details: for Mortality TS (Termite soldiers): 5 non-treated soldiers; for Mortality TW (Termite workers): 5 treated + 5 non-treated workers
# Protocol: A Japanese red pine poison bait chemical prepared in the same manner as in Test Example 13, was placed in a cylindrical cup made of acrylic resin (i.e. a cup having a hole with a diameter of 10 mm formed in the bottom and having hard plaster (Dental Stone) set at the bottom in a thickness of 10 mm), and 5 termite workers (Coptotermes formosanus) starved for 3 days, were released and permitted to ingest for 48 hours. Such bait-treated 5 alive termite workers were transferred together with non-treated 5 termite workers and 5 termite soldiers to a cup wherein a filter paper containing water was placed, and they were kept at room temperature of 25° C., whereby the number of dead termite workers and soldiers was examined as the time passed, and the mortality was calculated by the following formula.
# Mortality of workers (%)=(number of dead termite workers/treated 5 termite workers+non-treated 5 termite workers)×100
# Mortality of soldiers (%) (number of dead termite soldiers/non-treated 5 termite soldiers)×100
# [4] = test system: Coptotermes formosanus; assay: Test Example 18: dust-coated termite workers mixed with non-treated termites, mortality with time; details: 0.5% dust; for Mortality TS (Termite soldiers): 10 non-treated soldiers; for Mortality TW (Termite workers): 15 treated + 10 non-treated workers
# Protocol: 1 mg of each dust prepared in the same manner as in Test Example 17, was uniformly dispersed in a small size glass Petri dish with a diameter of 45 mm, and 15 termite workers (Coptotermes formosanus) were released and treated for dust coating. The treated termite workers were put into a cylindrical cup made of acrylic resin (i.e. a cup having a hole with a diameter of 10 mm formed in the bottom and having hard plaster (Dental Stone) set at the bottom in a thickness of 10 mm) containing a bait log, together with 10 non-treated termite workers and 10 non-treated termite soldiers. The cup was placed in a container having wet cotton laid over the bottom, and the container was maintained at room temperature of 25° C., whereby the number of dead termites in the cup was examined as the time passed, and the mortality was calculated by the following formula.
# Mortality of termite workers (%)=(Number of dead termite workers/15 treated termite workers+10 non-treated termite workers)×100
# Mortality of termite soldiers (%) (Number of dead termite soldiers/10 non-treated termite soldiers)×100
# [5] = test system: Reticulitermes speratus; assay: Test Example 21: treated sandy soil with weather resistance operation, termite mortality; details: 1000 ppm
# Protocol: Sandy soil passed through a sieve of 20 mesh was dried at a temperature of 60° C. to a constant weight, and 12 g of the soil thus obtained, was packed into a cup having a diameter of 60 mm. 3 ml of a pesticide solution adjusted to a predetermined concentration, was added and sufficiently mixed, whereupon it was maintained in a constant temperature chamber of 40° C. for 95 days to carry out the weather resistance operation. After the weather resistance operation, 10 termite workers (Reticulitermes speratus) were released on this test soil. The cup was placed in a container having wet cotton laid over the bottom, and the container was maintained at room temperature of 25° C. 2 Days later and 6 days later after releasing the termites, the number of dead termites in the cup was examined, and the mortality was calculated.
# [6] = weather resistance operation Negative, 2 Days later
# [7] = weather resistance operation Positive (40° C. for 95 days), 2 Days later
smiles,measurement,setting,value
"CC(=NN=C(Cc1ccc(C(F)(F)F)cc1)c1ccc(F)cc1)N(C)C [Compound No. II-2, [4′-fluoro-2-(4-trifluoromethylphenyl)acetophenone]N′-[1-(dimethylamino)ethylidene]hydrazone]",Mortality,[1]; II-2 5 ppm alone,0%
same,Mortality,[1]; II-2 10 ppm alone,10%
same,Mortality,"[2]; bait 0.005%, 4 Days later",0%
same,Mortality,"[2]; bait 0.005%, 8 Days later",0%
same,Mortality,"[2]; bait 0.005%, 10 Days later",0%
same,Mortality,"[2]; bait 0.005%, 14 Days later",30%
same,Mortality,"[2]; bait 0.005%, 17 Days later",30 (30) %
same,abnormal ratio,"[2]; bait 0.005%, 17 Days later",30 (30) %
same,Mortality,"[2]; bait 0.005%, 23 Days later",100%
same,Mortality,"[2]; bait 0.01%, 4 Days later",0%
same,Mortality,"[2]; bait 0.01%, 8 Days later",40%
same,abnormal ratio,"[2]; bait 0.01%, 8 Days later",60%
same,Mortality,"[2]; bait 0.01%, 10 Days later",55%
same,abnormal ratio,"[2]; bait 0.01%, 10 Days later",45%
same,Mortality,"[2]; bait 0.01%, 14 Days later",60%
same,abnormal ratio,"[2]; bait 0.01%, 14 Days later",40%
same,Mortality,"[2]; bait 0.01%, 17 Days later",100%
same,Mortality,"[2]; bait 0.01%, 23 Days later",100%
same,Mortality,"[2]; bait 0.05%, 4 Days later",47%
same,Mortality,"[2]; bait 0.05%, 8 Days later",47%
same,abnormal ratio,"[2]; bait 0.05%, 8 Days later",14%
same,Mortality,"[2]; bait 0.05%, 10 Days later",80%
same,abnormal ratio,"[2]; bait 0.05%, 10 Days later",7%
same,Mortality,"[2]; bait 0.05%, 14 Days later",100%
same,Mortality,"[2]; bait 0.05%, 17 Days later",100%
same,Mortality,"[2]; bait 0.05%, 23 Days later",100%
same,Mortality,"[2]; bait 0.1%, 4 Days later",73%
same,Mortality,"[2]; bait 0.1%, 8 Days later",100%
same,Mortality,"[2]; bait 0.1%, 10 Days later",100%
same,Mortality,"[2]; bait 0.1%, 14 Days later",100%
same,Mortality,"[2]; bait 0.1%, 17 Days later",100%
same,Mortality,"[2]; bait 0.1%, 23 Days later",100%
same,Mortality TS (Termite soldiers),"[3]; bait 0.05%, 6 Days later",0%
same,Mortality TW (Termite workers),"[3]; bait 0.05%, 6 Days later",30%
same,Mortality TS (Termite soldiers),"[3]; bait 0.05%, 8 Days later",0%
same,Mortality TW (Termite workers),"[3]; bait 0.05%, 8 Days later",30%
same,Mortality TS (Termite soldiers),"[3]; bait 0.05%, 15 Days later",40%
same,Mortality TW (Termite workers),"[3]; bait 0.05%, 15 Days later",70%
same,Mortality TS (Termite soldiers),"[3]; bait 0.1%, 6 Days later",0%
same,Mortality TW (Termite workers),"[3]; bait 0.1%, 6 Days later",50%
same,Mortality TS (Termite soldiers),"[3]; bait 0.1%, 8 Days later",20%
same,Mortality TW (Termite workers),"[3]; bait 0.1%, 8 Days later",60%
same,Mortality TS (Termite soldiers),"[3]; bait 0.1%, 15 Days later",100%
same,Mortality TW (Termite workers),"[3]; bait 0.1%, 15 Days later",100%
same,Mortality TS (Termite soldiers),[4]; 1 Day later,0%
same,Mortality TW (Termite workers),[4]; 1 Day later,0%
same,Mortality TS (Termite soldiers),[4]; 8 Days later,0%
same,Mortality TW (Termite workers),[4]; 8 Days later,4%
same,Mortality TS (Termite soldiers),[4]; 15 Days later,40%
same,Mortality TW (Termite workers),[4]; 15 Days later,52%
same,Mortality TS (Termite soldiers),[4]; 19 Days later,100%
same,Mortality TW (Termite workers),[4]; 19 Days later,100%
same,Mortality,[5]; [6],50 (50) %
same,abnormal ratio,[5]; [6],50 (50) %
same,Mortality,"[5]; weather resistance operation Negative, 6 Days later",100%
same,Mortality,[5]; [7],10%
same,abnormal ratio,[5]; [7],15%
same,Mortality,"[5]; weather resistance operation Positive (40° C. for 95 days), 6 Days later",95%
